Experiments:
VEGFR2 = VEGFR2 (Homo sapiens, UniProt P35968); assay: KINOMEscan profiling at […]; type: binding; set-up: gene KDR; kinase domain
RET = molecular target: T1, RET (Homo sapiens, UniProt P07949); assay: KINOMEscan profiling at […]; type: binding
T1 construct: kinase domain

KIT [1] = molecular target: T2, KIT (Homo sapiens, UniProt P10721)
Target sequence in this assay (P10721 589-937 limits assumed): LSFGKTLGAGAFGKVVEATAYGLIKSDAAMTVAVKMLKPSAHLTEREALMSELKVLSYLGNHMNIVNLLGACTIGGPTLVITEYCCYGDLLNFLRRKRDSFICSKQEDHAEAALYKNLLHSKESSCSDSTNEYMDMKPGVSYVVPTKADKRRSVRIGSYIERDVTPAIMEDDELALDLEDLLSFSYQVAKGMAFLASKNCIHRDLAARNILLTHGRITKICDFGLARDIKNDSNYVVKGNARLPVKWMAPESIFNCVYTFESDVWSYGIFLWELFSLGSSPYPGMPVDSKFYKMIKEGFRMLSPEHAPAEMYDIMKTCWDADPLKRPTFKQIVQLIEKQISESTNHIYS

AXL [2] = molecular target: AXL (Homo sapiens, UniProt P30530); assay: biochemical; set-up: KINOMEscan (DiscoverX) competition binding screen of 97 human kinases, percent of control at 10 uM; settings: binding competition, % of control; binder
Protocol: (§1) The KINOMEscan profiling of the inhibitors were performed as per directions by the manufacturer (DiscoverX) against a panel of human protein kinases.
Target sequence in this assay (P30530 whole entry): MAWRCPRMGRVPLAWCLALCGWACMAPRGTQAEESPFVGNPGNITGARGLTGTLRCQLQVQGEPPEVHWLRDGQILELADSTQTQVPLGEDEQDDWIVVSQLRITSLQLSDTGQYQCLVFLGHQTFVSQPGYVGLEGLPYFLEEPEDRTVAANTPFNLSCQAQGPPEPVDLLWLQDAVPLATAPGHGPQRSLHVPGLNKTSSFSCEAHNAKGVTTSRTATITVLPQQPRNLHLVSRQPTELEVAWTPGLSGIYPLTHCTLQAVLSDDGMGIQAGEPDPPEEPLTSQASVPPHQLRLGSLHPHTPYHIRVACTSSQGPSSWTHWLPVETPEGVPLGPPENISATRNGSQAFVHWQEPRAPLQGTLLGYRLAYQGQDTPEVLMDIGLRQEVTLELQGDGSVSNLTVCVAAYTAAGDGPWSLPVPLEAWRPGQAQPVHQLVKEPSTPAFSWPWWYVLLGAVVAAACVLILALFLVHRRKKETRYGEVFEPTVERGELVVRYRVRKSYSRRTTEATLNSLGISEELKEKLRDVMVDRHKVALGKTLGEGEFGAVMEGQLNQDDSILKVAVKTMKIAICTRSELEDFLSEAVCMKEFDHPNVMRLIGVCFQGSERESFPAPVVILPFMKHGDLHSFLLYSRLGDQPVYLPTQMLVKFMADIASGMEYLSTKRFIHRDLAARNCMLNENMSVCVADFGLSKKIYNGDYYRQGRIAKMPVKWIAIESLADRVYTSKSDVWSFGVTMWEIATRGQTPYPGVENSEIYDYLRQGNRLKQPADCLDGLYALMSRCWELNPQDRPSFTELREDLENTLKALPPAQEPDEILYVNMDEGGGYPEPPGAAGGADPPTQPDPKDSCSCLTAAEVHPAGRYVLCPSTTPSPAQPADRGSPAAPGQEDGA

FLT3 [3] = molecular target: T3, FLT3 (Homo sapiens, UniProt P36888); assay: KINOMEscan profiling at […]; type: binding
T3 construct: kinase domain
T3 sequence (P36888 564-993 limits assumed): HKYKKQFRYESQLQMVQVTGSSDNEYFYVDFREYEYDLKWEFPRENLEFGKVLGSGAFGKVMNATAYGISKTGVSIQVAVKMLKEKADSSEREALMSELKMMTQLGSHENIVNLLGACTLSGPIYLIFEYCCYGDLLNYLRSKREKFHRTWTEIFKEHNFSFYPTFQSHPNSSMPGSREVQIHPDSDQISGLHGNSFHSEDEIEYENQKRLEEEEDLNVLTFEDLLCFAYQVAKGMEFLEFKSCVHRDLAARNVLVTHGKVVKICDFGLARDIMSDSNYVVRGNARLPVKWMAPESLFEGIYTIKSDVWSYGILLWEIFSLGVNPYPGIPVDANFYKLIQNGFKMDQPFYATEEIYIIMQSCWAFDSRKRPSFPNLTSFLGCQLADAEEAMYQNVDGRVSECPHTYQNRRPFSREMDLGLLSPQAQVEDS

Abl = molecular target: T4, Abl (Homo sapiens, UniProt P00519); assay: KINOMEscan profiling at […]; type: binding
T4 construct: gene ABL1; kinase domain

PDGFRB = PDGFRB (Homo sapiens, UniProt P09619); assay: KINOMEscan profiling at […]; type: binding; set-up: gene PDGFRB; kinase domain
TIE2 = TIE2 (Homo sapiens, UniProt Q02763); assay: KINOMEscan profiling at […]; type: binding; set-up: gene TEK; kinase domain
KIT [4] = molecular target: T2, KIT; assay: biochemical; set-up: KINOMEscan (DiscoverX) competition binding screen of 97 human kinases, percent of control at 10 uM; settings: binding competition, % of control; read-out: RU-301 %Ctrl @ 10000nM
Protocol: as §1

AXL [5] = molecular target: AXL (Homo sapiens, UniProt P30530); assay: biochemical; set-up: KINOMEscan (DiscoverX) competition binding screen of 97 human kinases, percent of control at 10 uM; settings: binding competition, % of control; read-out: RU-301 %Ctrl @ 10000nM
Protocol: as §1
Target sequence in this assay (P30530 whole entry): as the sequence (P30530 whole entry) above

ABL1-phosphorylated = molecular target: T5, ABL1-phosphorylated (Homo sapiens, UniProt P00519); assay: biochemical; set-up: KINOMEscan (DiscoverX) competition binding screen of 97 human kinases, percent of control at 10 uM; settings: binding competition, % of control; read-out: RU-301 %Ctrl @ 10000nM
T5 construct: phosphorylated
Protocol: as §1

FLT3 [6] = molecular target: FLT3 (Homo sapiens, UniProt P36888); assay: biochemical; set-up: KINOMEscan (DiscoverX) competition binding screen of 97 human kinases, percent of control at 10 uM; settings: binding competition, % of control; read-out: RU-301 %Ctrl @ 10000nM
Protocol: as §1

Axl [7] = molecular target: T6, Axl (Homo sapiens, UniProt P30530+Q14393); assay: Gas6-induced hAxl/IFN-γR1 CHO reporter (pSTAT1) inhibition; sAxl-Gas6 pull-down partially inhibited; type: cell-based
T6 construct: extracellular and trans-membrane domain of Axl fused to IFN-γR1 intracellular domain; with Gas6

Chain of VEGFR2 (P35968 789-1356 limits assumed): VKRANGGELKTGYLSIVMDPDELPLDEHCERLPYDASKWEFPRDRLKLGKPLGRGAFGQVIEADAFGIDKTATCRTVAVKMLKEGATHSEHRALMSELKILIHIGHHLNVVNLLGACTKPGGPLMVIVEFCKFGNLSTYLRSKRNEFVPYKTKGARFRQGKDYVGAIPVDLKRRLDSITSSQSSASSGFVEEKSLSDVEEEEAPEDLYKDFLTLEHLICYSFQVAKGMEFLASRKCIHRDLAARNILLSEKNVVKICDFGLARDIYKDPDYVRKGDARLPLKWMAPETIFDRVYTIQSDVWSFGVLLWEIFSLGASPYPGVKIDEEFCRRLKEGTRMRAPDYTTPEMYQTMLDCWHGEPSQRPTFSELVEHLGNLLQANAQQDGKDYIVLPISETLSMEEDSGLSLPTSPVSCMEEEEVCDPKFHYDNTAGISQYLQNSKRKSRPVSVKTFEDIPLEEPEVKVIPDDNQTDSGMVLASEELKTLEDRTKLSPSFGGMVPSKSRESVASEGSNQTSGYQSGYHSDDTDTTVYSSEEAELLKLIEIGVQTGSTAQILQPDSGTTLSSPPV
Chain of TIE2 (Q02763 770-1124 limits assumed): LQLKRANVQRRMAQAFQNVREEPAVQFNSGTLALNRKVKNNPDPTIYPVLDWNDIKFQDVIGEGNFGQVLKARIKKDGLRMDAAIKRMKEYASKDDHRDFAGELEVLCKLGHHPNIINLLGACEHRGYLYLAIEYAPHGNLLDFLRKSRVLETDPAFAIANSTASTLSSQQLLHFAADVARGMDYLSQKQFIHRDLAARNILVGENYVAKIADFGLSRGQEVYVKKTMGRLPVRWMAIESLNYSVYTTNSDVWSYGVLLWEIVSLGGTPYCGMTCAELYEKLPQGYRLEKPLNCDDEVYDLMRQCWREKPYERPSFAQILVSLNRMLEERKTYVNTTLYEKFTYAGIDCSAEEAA
T4 sequence (P00519 242-493 limits assumed): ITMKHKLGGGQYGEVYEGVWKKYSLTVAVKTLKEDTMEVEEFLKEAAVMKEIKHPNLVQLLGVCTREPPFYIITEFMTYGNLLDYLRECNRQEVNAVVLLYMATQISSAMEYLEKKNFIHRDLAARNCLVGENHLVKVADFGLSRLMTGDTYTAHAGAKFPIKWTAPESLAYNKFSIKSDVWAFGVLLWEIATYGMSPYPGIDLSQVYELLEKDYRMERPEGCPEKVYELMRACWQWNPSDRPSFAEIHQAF
T1 sequence (P07949 724-1016 limits assumed): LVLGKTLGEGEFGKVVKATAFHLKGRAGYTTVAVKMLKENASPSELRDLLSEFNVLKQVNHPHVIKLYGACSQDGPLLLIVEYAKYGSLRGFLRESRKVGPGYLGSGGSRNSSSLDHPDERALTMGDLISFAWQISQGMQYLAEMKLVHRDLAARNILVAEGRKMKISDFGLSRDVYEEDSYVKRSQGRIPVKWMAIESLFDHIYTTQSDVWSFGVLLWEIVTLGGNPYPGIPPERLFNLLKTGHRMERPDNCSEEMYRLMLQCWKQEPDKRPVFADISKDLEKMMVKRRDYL
T5 sequence (P00519 whole entry): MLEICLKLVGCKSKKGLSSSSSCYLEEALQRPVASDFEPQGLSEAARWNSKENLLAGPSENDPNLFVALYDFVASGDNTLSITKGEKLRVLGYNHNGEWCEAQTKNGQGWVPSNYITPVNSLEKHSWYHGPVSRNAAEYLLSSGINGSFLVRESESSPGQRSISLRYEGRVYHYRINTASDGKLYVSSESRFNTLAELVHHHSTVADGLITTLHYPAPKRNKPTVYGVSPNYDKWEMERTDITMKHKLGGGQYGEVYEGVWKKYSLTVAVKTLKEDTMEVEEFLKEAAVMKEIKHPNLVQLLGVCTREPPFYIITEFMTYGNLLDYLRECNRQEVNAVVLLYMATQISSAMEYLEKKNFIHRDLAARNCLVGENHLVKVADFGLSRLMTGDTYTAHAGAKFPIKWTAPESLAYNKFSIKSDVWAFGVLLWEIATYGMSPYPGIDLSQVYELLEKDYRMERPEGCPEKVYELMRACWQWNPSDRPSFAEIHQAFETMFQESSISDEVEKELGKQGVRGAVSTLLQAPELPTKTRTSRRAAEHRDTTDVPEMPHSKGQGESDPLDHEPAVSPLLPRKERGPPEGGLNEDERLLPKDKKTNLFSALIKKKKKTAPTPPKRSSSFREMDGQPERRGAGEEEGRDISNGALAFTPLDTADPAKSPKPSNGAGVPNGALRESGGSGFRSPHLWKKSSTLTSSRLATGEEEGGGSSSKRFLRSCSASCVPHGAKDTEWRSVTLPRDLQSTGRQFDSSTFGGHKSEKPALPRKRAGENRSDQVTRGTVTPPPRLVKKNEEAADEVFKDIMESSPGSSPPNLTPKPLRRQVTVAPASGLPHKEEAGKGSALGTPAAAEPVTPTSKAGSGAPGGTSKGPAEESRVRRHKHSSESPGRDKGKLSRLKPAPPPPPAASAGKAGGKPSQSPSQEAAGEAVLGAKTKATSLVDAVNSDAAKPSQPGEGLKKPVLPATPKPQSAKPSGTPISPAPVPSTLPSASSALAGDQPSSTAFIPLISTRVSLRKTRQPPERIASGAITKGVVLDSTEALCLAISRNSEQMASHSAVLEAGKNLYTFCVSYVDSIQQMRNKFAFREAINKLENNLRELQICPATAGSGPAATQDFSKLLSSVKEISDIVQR
Chain of PDGFRB (P09619 600-962 limits assumed): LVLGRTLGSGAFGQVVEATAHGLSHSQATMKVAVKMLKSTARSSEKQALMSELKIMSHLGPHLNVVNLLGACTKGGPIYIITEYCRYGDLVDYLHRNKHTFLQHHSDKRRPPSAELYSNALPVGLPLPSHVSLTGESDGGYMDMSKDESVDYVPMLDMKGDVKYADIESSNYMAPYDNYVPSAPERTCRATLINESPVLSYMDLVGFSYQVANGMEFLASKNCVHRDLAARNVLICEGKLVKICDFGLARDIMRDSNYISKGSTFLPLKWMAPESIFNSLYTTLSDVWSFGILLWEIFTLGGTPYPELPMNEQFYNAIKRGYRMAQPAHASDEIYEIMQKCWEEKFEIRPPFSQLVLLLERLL

Structure (SMILES) | KINOMEscan profiling at 10 uM (VEGFR2) | KINOMEscan profiling at 10 uM (RET) | KINOMEscan profiling at 10 uM (KIT [1]) | R428 %Ctrl @ 10000nM (AXL [2]) | KINOMEscan profiling at 10 uM (FLT3 [3]) | KINOMEscan profiling at 10 uM (Abl) | KINOMEscan profiling at 10 uM (PDGFRB) | KINOMEscan profiling at 10 uM (TIE2) | remaining binding at 10 µM (KIT [4]) | remaining binding at 10 µM (AXL [5]) | remaining binding at 10 µM (ABL1-phosphorylated) | remaining binding at 10 µM (FLT3 [6]) | IC50 (Axl [7])
Nc1nc(Nc2ccc3c(c2)CC[C@@H](N2CCCC2)CC3)nn1-c1cc2c(nn1)-c1ccccc1CCC2 [R428] | KIT, PDGFR A and B, RET, TIE2, VEGFR2, JAK2, JAK3 and FLT3 kinases | R428 also bound to several other kinases, including Abl, Aurora kinases, KIT, PDGFR A and B, RET | R428 also bound to several other kinases, including Abl, Aurora kinases, KIT | 0.1% | KIT, PDGFR A and B, RET, TIE2, VEGFR2, JAK2, JAK3 and FLT3 kinases | R428 also bound to several other kinases, including Abl, Aurora kinases, KIT | R428 also bound to several other kinases, including Abl, Aurora kinases, KIT, PDGFR A and B | KIT, PDGFR A and B, RET, TIE2, VEGFR2, JAK2, JAK3 and FLT3 kinases |  |  |  |  | 
Cc1cc(CSc2ccccc2C(=O)NCCNc2ccc(C(F)(F)F)cc2[N+](=O)[O-])on1 [RU-301] |  |  |  |  |  |  |  |  | 96% | 89% | 81% | 99% | low micromolar

From publication PMC5341070, “Small molecule inhibitors block Gas6-inducible TAM activation and tumorigenicity” (Scientific Reports, 2017)
